What follows are compounds tested against Thromboxane-A synthase (Rattus norvegicus) (UniProt P49430) (assay: Inhibitory activity to inhibit Inophore-induced arachidonic acid metabolism (inhibition of TXB2 formation) in rat).
Thromboxane-A synthase (Rattus norvegicus), sequence (P49430 whole entry, looked up): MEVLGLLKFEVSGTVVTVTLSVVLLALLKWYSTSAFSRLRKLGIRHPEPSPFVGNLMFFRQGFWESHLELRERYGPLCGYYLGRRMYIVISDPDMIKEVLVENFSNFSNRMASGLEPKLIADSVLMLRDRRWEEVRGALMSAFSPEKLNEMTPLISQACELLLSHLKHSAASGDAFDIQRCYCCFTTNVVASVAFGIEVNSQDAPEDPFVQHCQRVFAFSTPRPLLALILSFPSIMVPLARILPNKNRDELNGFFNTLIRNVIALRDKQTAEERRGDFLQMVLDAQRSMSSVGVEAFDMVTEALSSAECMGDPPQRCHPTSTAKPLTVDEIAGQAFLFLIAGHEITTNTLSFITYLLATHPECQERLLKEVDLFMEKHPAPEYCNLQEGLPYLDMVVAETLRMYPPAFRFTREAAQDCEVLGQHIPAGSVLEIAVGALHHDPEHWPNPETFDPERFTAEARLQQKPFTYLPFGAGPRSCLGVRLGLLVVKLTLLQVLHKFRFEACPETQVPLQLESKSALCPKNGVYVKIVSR
CC(C)c1ccc2c(c1)c(SC(C)(C)C)c(CC(C)(C)C(=O)O)n2Cc1ccc(Cl)cc1 showed an IC50 of 2000 nM.
In the case of CCCc1c(OCCCCCOc2cc3c(cc2C(C)=O)CCC(C(=O)O)O3)ccc(C(C)=O)c1O (stereo not drawn) [Ro-23-3544], the IC50 is reported as 6000 nM.
Work on COc1ccc2c(c1)c(CC(=O)O)c(C)n2C(=O)c1ccc(Cl)cc1 [indometacin] yielded an IC50 of 100 nM.
